The source of these data is PMC3811480, “The R Enantiomer of the Antitubercular Drug PA-824 as a Potential Oral Treatment for Visceral Leishmaniasis” (Antimicrobial Agents and Chemotherapy, 2013).

Series [1] relates to Leishmania donovani LdBOB promastigotes. Briefly: In vitro drug sensitivity assay, L. donovani promastigotes (72 h, resazurin). Type of series: cell-based. The note with it: for EC50: Leishmania donovani; for activity against L. donovani promastigotes: highest concentration tested 50 μM.
In series [2] the test system is Transgenic LdBOB promastigotes expressing the Leishmania major nitroreductase (LmjF.05.0660). Briefly: microbe, parasite or virus in culture. It counts as cell-based, Leishmania donovani. The note with it: for EC50: Leishmania major, read-out: EC50 against NTR-overexpressing promastigotes.
Series [3] concerns Trypanosoma brucei brucei S427 29-13 procyclic trypomastigotes. Put plainly: In vitro drug sensitivity assay, T. brucei procyclics (72 h, resazurin). It counts as cell-based.
In series [4] the test system is T. brucei bloodstream forms (S427 Single Marker). Briefly: In vitro drug sensitivity assay, bloodstream-form T. brucei. The note with it: Trypanosoma brucei. It counts as cell-based.
For series [5], the system named is Trypanosoma cruzi Silvio-X10/7 clone A1 epimastigotes. Put plainly: In vitro drug sensitivity assay, T. cruzi epimastigotes (72 h, resazurin). The note with it: T. cruzi epimastigote. It counts as cell-based.
In series [6] the test system is T. cruzi amastigotes in Vero cells. Briefly: In-Vero-cell T. cruzi drug sensitivity assay (72 h, high-content imaging). Type of series: cell-based. To be noted: Trypanosoma cruzi; T. cruzi amastigote (in Vero cell).
The subject of series [7] is L. donovani intracellular amastigotes in mouse peritoneal macrophages. Briefly: In-macrophage drug sensitivity assay. Type of series: cell-based, Leishmania donovani. To be noted: for EC50: L. donovani amastigote (in macrophage); for activity against L. donovani intracellular amastigotes: highest concentration tested 50 μM.
For another series, the system named is HepG2 cells. Put plainly: HepG2 counterscreen (resazurin). The note with it: Homo sapiens; Mammalian (HepG2); n = 2. It counts as cell-based.
Series [8] is described as follows: Exposure in mice after acute oral dosing (blood levels, UPLC-MS/MS). Type of series: in vivo, BALB/c mice. The note with it: for half-life: read-out: elimination half-life (t1/2) (converted); for Tmax: read-out: time of maximum concentration in blood. The procedure:
The R and S enantiomers of PA-824 (50 mg kg^−1) were orally administered to BALB/c mice. Blood samples (10 μl) were collected from the tail vein of each animal into sample storage tubes (Micronic BV) containing deionized water (20 μl) at defined intervals postdose and stored at −80°C until analysis. The level of each enantiomer in mouse blood was determined by UPLC-MS/MS ([20]).

Series [9] deals with L. donovani amastigotes (LV9). Put plainly: In vivo drug sensitivity, mouse model of visceral leishmaniasis (liver parasite burden). The note with it: for suppression of infection (liver parasite burden) compared to untreated controls / suppression of infection (liver parasite burden): BALB/c mice; for suppression of infection (liver parasite burden) compared to untreated controls: 30 mg kg^−1 orally twice daily for 5 days. More on the design: species or system Leishmania donovani.

The nature of series [10]: Tolerability in mice during the efficacy study. It counts as in vivo, BALB/c mice. To be noted: 30 or 100 mg kg^−1 orally twice daily for 5 days. As to the method: All animal experiments were approved by the University Ethical Review Committee and performed under the Animals (Scientific Procedures) Act 1986 in accordance with the European Communities Council Directive (86/609/EEC). Groups of female BALB/c mice (5 per group) were inoculated intravenously with approximately 2 × 10^7 L. donovani amastigotes (LV9; WHO designation MHOM/ET/67/HU3) harvested from the spleen of an infected hamster ([24]). […] Drug dosing solutions were prepared fresh each day, and the vehicle for both enantiomers of PA-824 was 10% (vol/vol) dimethyl sulfoxide (DMSO), 40% polyethylene glycol 400, and 50% deionized water. On day 14 postinfection, all animals were humanely euthanized and parasite burdens were determined by counting the number of amastigotes/500 liver cells ([11]). Parasite burden is expressed in Leishmania donovani units (LDU), mean number of amastigotes per liver cell × mg weight of liver ([25]).

The subject of series [11] is promastigotes of the LdBOB strain of L. donovani. Put plainly: Drug combination studies (fixed-ratio isobologram, 72 h). Type of series: cell-based, Leishmania donovani. The note with it: for EC50: Leishmania donovani, compound alone, duplicate cultures, read-out: Absolute EC50. The procedure:
The EC50s of each combination were determined after 72 h and plotted as an isobologram ([23]).

The subject of a further series is LdBOB promastigotes. Put plainly: PA-824-mediated cell killing (time to kill, wash-out viability). It counts as cell-based, Leishmania donovani. To be noted: 10 times EC50, promastigotes.
For series [12] the following is noted: mouse liver microsomes, 0.5 μM compound.
The subject of series [13] is Mycobacterium tuberculosis. Also noted: method as in PMID 22023140. To be noted: cited from earlier work.
The next series in a line: in vitro. The note with it: mouse, plasma.
The conditions of series [14]: mouse PPB, equilibrium dialysis. A general note: Equilibrium dialysis compares concentrations on both sides of a semipermeable membrane.
Series [15] has as its system lab-generated strains of nifurtimox-resistant T. brucei. The note with it: cited from earlier work.
Series [16] concerns T. brucei bloodstream forms (S427 Single Marker). To be noted: previously determined value; cited from earlier work.
The test system of series [17] is L. donovani intracellular amastigotes in mouse peritoneal macrophages. The note with it: comparator value, earlier work of the authors; cited from earlier work.
The mark [18] stands for this setting: WT LdBOB promastigotes, nitroreductase experiment (Fig. 2), read-out: EC50 against wild-type (WT) promastigotes.
[19] abbreviates: L. donovani promastigote, read-out: EC50.
The mark [20] stands for this setting: Leishmania donovani, Peritoneal macrophage.
Setting [21] is: Leishmania donovani, Peritoneal macrophage, L. donovani in macrophages, from EC50 and Hill slope, read-out: EC90.
Where [22] appears, read: BALB/c, mouse, whole blood, 50 mg kg^−1 oral.
The mark [23] stands for this setting: 100 mg kg^−1 orally twice daily for 5 days.
[24] abbreviates: fixed-ratio isobologram, promastigotes.

Values joined by “and” are separate entries in the source; they are usually repeats but may differ in a detail not shown here. Equal entries are not always repeated. “Also recorded” adds a separate entry of the source. Where two headings read alike, the source gives them in different places. Some results are limits rather than exact numbers.

In the case of `CC1CS(=O)(=O)CCN1/N=C/c1ccc([N+](=O)[O-])o1` (stereo not drawn) [nifurtimox], the EC50 in [1] (setting [18]) was found to be 5.6 ± 0.16 µM; in [2], 0.2 ± 0.09 µM. For the same compound, in series [2] (transgenic versus wild-type), the “increase in sensitivity of nitroreductase-overexpressing parasites” value amounted to 26 fold.
Turning to `O=[N+]([O-])c1cn2c(n1)OC[C@H](OCc1ccc(OC(F)(F)F)cc1)C2` [(R)-PA-824], the EC50 worked out at 25 ± 0.2 µM in series [3]; 14.9 ± 0.7 µM in series [4]; 0.7 ± 0.08 µM in [5]; 4.4 ± 0.5 µM in [6]; 0.16 ± 0.03 µM in series [1] (setting [19]); 0.93 ± 0.06 µM in [7]. The EC50 was 0.9 ± 0.1 µM in series [7] (setting [20]); over 50 µM in the series on HepG2 cells; 0.11 ± 0.005 µM in [2]; 0.18 µM in [11] (Fig. 3A experiment); 0.1 µM in series [11] (Fig. 3B experiment). Also, the EC90 in [7] (setting [21]) turned out to be 3.4 µM; in series [7] (Leishmania donovani, Peritoneal macrophage, not adjusted for plasma protein binding, read-out: EC90 (equivalent mass concentration)) it was 1.2 µg/mL. Further, the oral bioavailability result in series [8] was “orally bioavailable”. In addition, the “maximum concentration in blood” value in [8] (50 mg kg^−1 oral) is recorded as 10,500 ng ml^−1. For the same compound, the half-life in [8] (setting [22]) is about 2 h. The Tmax in series [8] (setting [22]) turned out to be 4 h. The “suppression of infection (liver parasite burden) compared to untreated controls” value in [9] is on record as “approximately 35%”. For the same compound, the “suppression of infection (liver parasite burden)” value in series [9] (setting [23]) was > 99% and 99.9%. In series [10], the tolerability in mice entry was “extremely well tolerated”. Further, the “interaction in combination with (S)-PA-824” value in series [11] (setting [24]) is “mild antagonistic behavior; also recorded: progressively more antagonistic; also recorded: mildly antagonistic”. In addition, in series [11] (setting [24]), the “interaction in combination with fexinidazole sulfone” value is reported as “act additively; also recorded: additive effect”. Moreover, the cytocidal or cytostatic entry in the series with LdBOB promastigotes is on record as “leishmanicidal rather than cytostatic; also recorded: cytocidal rather than cytostatic”. The “time after which cell numbers begin to decline” value in the series on LdBOB promastigotes amounted to 12 h. Further, the “time at which no intact/live parasites remain” value in the series on LdBOB promastigotes turned out to be 24 h. The same compound showed a CLint in [12] of 0.65 mL/min/g. Moreover, the MIC in series [13] is over 100 µM. Besides, the free fraction (fraction unbound) in “in vitro” worked out at 0.22. The compound further returned a solubility in “physchem” of over 250 µM.
Regarding `FC(F)(F)Oc1ccc(CO[C@@H]2COc3nccn3C2)cc1` [(S)-des-nitro-PA-824], the “activity against L. donovani promastigotes” value in series [1] is “inactive”. Moreover, the “activity against L. donovani intracellular amastigotes” value in [7] was “inactive”.
For `CCCCCCCCCCCCCCCCOP(=O)([O-])OCC[N+](C)(C)C` [miltefosine], the “suppression of infection (liver parasite burden)” value in series [9] (12 mg kg^−1 orally once daily for 5 days) was 68.7%.
On to `FC(F)(F)Oc1ccc(CO[C@H]2COc3nccn3C2)cc1` [(R)-des-nitro-PA-824], for which the “activity against L. donovani promastigotes” value in series [1] was “inactive”. Also, the “activity against L. donovani intracellular amastigotes” value in series [7] is “inactive”. Besides, in series [14], the “fraction unbound (plasma protein binding)” value was 0.45.
On to `O.O.O.O.O.O.O.O.O.O=C([O-])[C@@H]1[O][Sb](=[O])([O][Sb]2(=[O])[O][C@H]([C@H](O)CO)[C@H](O)[C@H](C(=O)[O-])[O]2)[O][C@H]([C@H](O)CO)[C@@H]1O.[Na+].[Na+].[Na+]` (stereo partly drawn) [sodium stibogluconate], for which the “suppression of infection (liver parasite burden)” value in series [9] (15 mg kg^−1 subcutaneously once daily for 5 days) came out at 41.9%.
In the case of `CSc1ccc(OCc2ncc([N+](=O)[O-])n2C)cc1` [fexinidazole], the “sensitivity of nifurtimox-resistant T. brucei” value in series [15] is reported as “cross resistant”.
For `O=[N+]([O-])c1cn2c(n1)OC[C@@H](OCc1ccc(OC(F)(F)F)cc1)C2` [(S)-PA-824, reference compound], the 50% effective concentration (EC50) in [3] is 36.5 ± 2.5 µM; in [5] it was 3.4 ± 0.03 µM; in series [6], over 30 µM; in series [1] (setting [19]) it was 0.9 ± 0.1 µM; in [1] (setting [18]), 0.96 ± 0.02 µM; in [7] it was 4.92 ± 0.3 µM. For the same compound, the EC50 was 4.9 ± 0.3 µM in [7] (setting [20]); over 50 µM in the series on HepG2 cells; 0.8 ± 0.04 µM in [2]; 0.74 µM in series [11] (Fig. 3B experiment); 37.8 ± 3.2 µM in series [16]. For the same compound, the EC90 in series [7] (setting [21]) came to 22 µM. The oral bioavailability result in [8] is given as “orally bioavailable”. For the same compound, the “maximum concentration in blood” value in series [8] (50 mg kg^−1 oral) is 11,600 ng ml^−1. This compound registered a concentration at 24 h in series [8] (BALB/c, mouse, whole blood, 50 mg kg^−1 oral, 24 h) of 900 ng/mL. In series [8] (setting [22]), the half-life was about 5 h. In series [8] (setting [22]), the Tmax was determined as 4 h. Besides, the “suppression of infection (liver parasite burden) compared to untreated controls” value in series [9] was “approximately 35%”. For the same compound, in series [9] (setting [23]), the “suppression of infection (liver parasite burden)” value is “comparable to those seen in drug-free animals; also recorded: less efficacious”. In addition, in series [9] (earlier in vivo study, range of doses down to 0.4 mg kg^−1, twice daily orally (Fig. S1)), the “dose dependence of leishmanicidal effect” value is reported as “apparent absence of a dose-dependent leishmanicidal effect”. In addition, in series [10], the tolerability in mice result is on record as “extremely well tolerated”. For the same compound, the cytocidal or cytostatic entry with LdBOB promastigotes is “leishmanicidal rather than cytostatic”. Also, the “time after which cell numbers begin to decline” value with LdBOB promastigotes was found to be 12 h. Besides, in the series with LdBOB promastigotes, the “time at which no intact/live parasites remain” value is on record as 36 h. Besides, in series [12], the CLint was determined as 1.6 mL/min/g. For the same compound, the free fraction (fraction unbound) in the series “in vitro” was found to be 0.21. In “physchem”, this compound had a solubility of over 250 µM.
`Cn1c([N+](=O)[O-])cnc1COc1ccc(S(C)(=O)=O)cc1` [fexinidazole sulfone, reference compound]: the EC50 in series [11] (Fig. 3A experiment) was 8.8 µM; in series [17], 5.3 µM.

The term EC50 denotes the concentration that produces a half-maximal response. A word on the MIC: it is the smallest concentration in the dilution series that meets the test's criterion for growth inhibition. In general, fraction unbound refers to free concentration divided by total concentration. Higher therefore signals weak binding. One may read the solubility as the dissolved amount per volume that the medium holds. Low readings indicate little dissolved substance, high ones much dissolved substance.
